Measured values as given in patent US7638496B2 (priority 2000, dated 2009).

How the values were obtained:
IMP dehydrogenease = settings: cited from earlier work
PTV (Adames strain) = assay: PTV infection in C57BL/6 mice in vivo; settings: 24 h post infection by PTV
Protocol: For 24 h post infection by PTV in vivo the minimum effective s.c. dose of 32 mg/kg for ribavirin and for viramidine was 96 mg/kg given s.c. b.i.d for 5 days. For 24 h post infection by PTV in vivo the minimum effective p.o. dose of 20 mg/kg for ribavirin and for viramidine was 40 mg/kg given p.o. b.i.d for 5 days.

Compound: NC(=O)c1ncn([C@@H]2O[C@H](CO)[C@@H](O)[C@H]2O)n1 [Ribavirin, 1-β-D-ribofuranosyl-1,2,4-triazole-3-carboxamide]
- IMP dehydrogenase inhibition (IMP dehydrogenease): inhibitor of IMP dehydrogenease
- minimum effective p.o. dose (PTV (Adames strain); p.o. b.i.d for 5 days): 20 mg/kg
- minimum effective s.c. dose (PTV (Adames strain); s.c. b.i.d for 5 days): 32 mg/kg
